The results in this text go back to the pKa sets of Baltruschat and Czodrowski (2020).

Where a SMILES comes first, the peptide text is derived from it.

For `CN[C@H]1CCCC[C@@H]1O`, the pKa (basic group) came to 10.2.

`O=C(Cc1ccccc1)c1cc[n+](Cc2cccc([N+](=O)[O-])c2)cc1` displayed a pKa (acidic group) of 8.68. With `Cc1nc(N)nc(N)n1`, the pKa (basic group) came to 4.59. `O=C(O)C1CCC[NH2+]1` (stereo unspecified): the pKa (acidic group) came out at 1.99. In the case of `Cc1c(Cn2cc[nH+]c2)sc2cc(C(=O)O)ccc12`, the pKa (acidic group) was 3.59.

With `CC(C[NH3+])/C(N)=N/O` (stereo unspecified), the pKa (basic group) is 3.65. The compound `O=C(O)Cc1nnn[nH]1` had a pKa (acidic group) of 3.1. For `[O-]c1ncnc2nc[nH]c12`, the pKa runs as follows: (acidic group) 12.1; (basic group) 8.81. The compound `CC(C)(C)c1ccccc1C(=O)O` registered a pKa (acidic group) of 3.53.

Regarding `Brc1ccccn1`, for the setting “basic group”, the pKa turned out to be 0.9. `COc1cccc(OC)c1O` gave a pKa (acidic group) of 10.1.

`O=S(=O)(Cc1ccccc1)c1ncn[nH]1` had a pKa (acidic group) of 6.23. Compound `CCc1cc([N+](=O)[O-])cc(CC)c1O` came in with a pKa (acidic group) of 7.73. The compound `NCCC(=O)N[C@@H](Cc1c[nH]cn1)C(=O)[O-]` had a pKa (basic group) of 9.61. Same read-out and setting: for `[O-]c1cc2ccccc2cc1C1=NCCN1` the value was 10.8. For the compound `Oc1ccccc1C1=[NH+]CCN1`, where the note is “acidic group”, the pKa was found to be 6.63. Compound `Cc1nc(-c2ccccc2)[nH]c1C` yielded a pKa (basic group) of 7. For the setting “acidic group”, `O=C1COC(=O)C1I` (stereo unspecified) showed a pKa of 2.31. `O=C(O)c1ccc(CO)cc1` displayed a pKa (acidic group) of 4.18. Still for that read-out and setting: for `O=C(O)[C@]12C[NH2+]CC[C@H]1O2` the value was 2.63.

`Cc1ccccc1NC(=N)Nc1ccccc1C`: the pKa (basic group) came out at 9.67. On the same count and under the same terms, next, `Clc1cccc(Nc2ccccc2)c1`: 2.34. Compound `O=C(O)C1COCCO1` (stereo unspecified) registered a pKa (acidic group) of 3.15. The same measure, in the same setting: for `CCCCCCCCCCc1c(-c2ccccc2)n[nH]c1O` the value was 11. As for `CCC(C)(C)NC1CCCCC1`, the pKa (basic group) was 11.2. Consider `C#CCC(=O)O`, for which the pKa (acidic group) came to 3.31. For the compound `CCCCCCCP(=O)(CCCCCCC)NC1CCCCC1`, the pKa runs as follows: (acidic group) 12.5; (basic group) 4.87.

The compound `CNc1ccc(OC)cc1` gave a pKa (basic group) of 5.93. `C[n+]1cc(O)cc2ccccc21` gave a pKa (acidic group) of 5.42. Same read-out and setting: for `NC(=O)c1c(CC(=O)O)n[nH]c1N` the value was 3.5.

Regarding `Fc1cc2nc[nH]c2cc1Cl`, the pKa (basic group) was 4.33. For `CC(=O)Nc1ccc2cc3ccccc3nc2c1`, the pKa (basic group) is 5.6. For the compound `O=C(O)c1cccc([N+](=O)[O-])c1`, under “acidic group”, the pKa was 3.47. The same measure, in the same setting: for `Sc1ccc(Br)cc1` the value was 5.8. For the compound `Nc1cccc2cnccc12`, the pKa (basic group) was 5.59. The same measure, in the same setting: for `CCN(CC)C(C)(C)C=O` the value was 8.3. `FC(F)(F)c1cccc(NC=S)c1` gave a pKa (acidic group) of 10.8. In turn, `Cc1ccc(S(=O)(=O)N2CCNCC2)cc1` yielded a pKa (basic group) of 7.41. For the compound `COc1ccc(/C=N/O)cc1OC`, the pKa (acidic group) came out at 10.8. In turn, `Nc1ccc(S(=O)(=O)Nc2ccncn2)cc1` yielded a pKa (acidic group) of 6.17 and a pKa (basic group) of 1.3.

In turn, `COc1c(C(=O)N[C@@H]2C[C@H]3CC[C@@H](C2)N3Cc2ccccc2)cccc1[N+](=O)[O-]` registered a pKa (basic group) of 8.61. Under “acidic group”, `O=C(O)c1c[nH]c2ccccc12` showed a pKa of 5.27. `CC(Cc1ccccc1)NCCC#N` (stereo unspecified) gave a pKa (basic group) of 7.23.

As to `[NH3+]CCCCCCCCCCC(=O)O`, the pKa (acidic group) amounted to 4.62. As for `CC1CCCCC1=N` (stereo unspecified), where the note is “basic group”, the pKa stood at 9.38. Still for that read-out and setting: next, `C[NH+](C)c1ccc(/N=N/c2ccncc2)cc1`: 3.4. As to `Oc1ccccc1CN1CCCC1`, the pKa was 10.8 (acidic group) and 8.81 (basic group). The compound `Oc1ccc(-c2cc(=S)ss2)cc1` showed a pKa (acidic group) of 7.86. Where the note is “basic group”, `CSC(=N)Nc1ccccc1` displayed a pKa of 7.14. Consider `O=CNOC(=O)/C=C/c1ccccc1`, for which the pKa (acidic group) was 5.9. `NC1(C(=O)[O-])CCCC1` had a pKa (basic group) of 10.1. As to `Oc1ccc2cnncc2c1`, the pKa came out at 7.95 (acidic group) and 3.94 (basic group). `C=C(C)C(=O)OCCCN`: under “basic group”, the pKa came to 9.62. On the same count and under the same terms, next, `Nc1ccccc1NC(=O)c1ccc([N+](=O)[O-])cc1`: 3.01. Same read-out and setting: next, `Cc1ccccc1/C(=N\CCC[NH+](C)C)c1cccc2ccccc12`: 4.14; `Cc1ccc([N+](=O)[O-])cc1/C(=N/CCC[NH+](C)C)c1ccccc1`: 3.14. On the same count and under the same terms, for `CCC/C=C1\CCCN1C` the value was 11.9. Under “acidic group”, `Cc1cccc(=O)c(O)c1` displayed a pKa of 7.26.

On to `CC(C)C(=O)C(C)(C)CN(C)C`, for which the pKa (basic group) was 9.3. Under “basic group”, `Cc1cc(-c2ccccc2)nn2c(C[NH+]3CCOCC3)cnc12` came in with a pKa of 2.9. Turning to `CC(C)CCC1=C(O)C(=O)c2ccccc2C1=O`, for the setting “acidic group”, the pKa came to 5.13. `C[C@@H]1CC[C@H]2CC[C@H](C)N21` had a pKa (basic group) of 11.5.

Compound `N[C@@H](Cc1ccccc1)C(=O)[O-]` returned a pKa (basic group) of 9.14. Consider `S=C1NCCO1`, for which the pKa (acidic group) is 11.1.

Regarding `N#CC1=CN2CCC1CC2`, the pKa (basic group) came out at 5.84. The same measure, in the same setting: next, `CCc1cc(Cl)n(C)c2nc3ccccc3c1-2`: 7.46. For `CC(C)(C)C1CCn2nnnc2C(C(=O)O)C1` (stereo unspecified), the pKa (acidic group) is 4.4. `CCC(CC)C(=O)O[C@H]1O[C@@H](C(=O)O)[C@H](O)[C@@H](O)[C@@H]1O`: the pKa (acidic group) worked out at 3.37. In turn, `O=P([O-])([O-])C(NCc1ccccn1)c1ccccc1[O-]` (stereo unspecified) had a pKa (basic group) of 12.1. Take `COc1ccc(S(=O)(=O)CCN2CCCCC2)c(OC)c1OC`: the pKa (basic group) came out at 7.24. Still for that read-out and setting: next, `COCCN`: 9.67. On the same count and under the same terms, for `[O-]c1ccnc2cccnc12` the value was 10. As to `Cc1c(Cn2cc[nH+]c2)n(C)c2ccc(C(=O)O)cc12`, the pKa (acidic group) amounted to 4.08. On to `Cc1cc(C)ncn1`, for which, where the note is “basic group”, the pKa was 2.7. The compound `Cc1ccccc1[N+](C)(C)O` showed a pKa (acidic group) of 4.78. With `C[NH+]1CCC[C@H]1c1cccnc1`, where the note is “basic group”, the pKa came out at 3.16. Still for that read-out and setting: next, `c1cncc(-c2[nH]c3ccccc3[nH+]2)c1`: 1.56; `Nc1nnnn1-c1cccc([N+](=O)[O-])c1`: 0.47. `CCCCOc1ccc(C(=O)O)cc1` yielded a pKa (acidic group) of 4.48. Take `CN1C=C(C#N)C=CC1`: the pKa (basic group) amounted to 2.7.

Compound `Cc1cnc([C@@H](O)[C@H](O)[C@H](O)CO)cn1` had a pKa (basic group) of 1.4.

`COc1ccc(-c2cnc(-c3ccc(C)cc3)o2)cc1` had a pKa (basic group) of 1.26. `CCN(CC)CCSCC(C)C` displayed a pKa (basic group) of 8.83.

In turn, `CNc1nc(SC)nc2[nH]ncc12` yielded a pKa (acidic group) of 11.4 and a pKa (basic group) of 3.61. Take `CC(O)CNCC[NH3+]` (stereo unspecified): for the setting “basic group”, the pKa came out at 6.94. Same read-out and setting: for `CCOc1ccc2c3c1O[C@H]1[C@@H](O)C=C[C@H]4[C@@H](C2)N(C)CC[C@@]341` the value was 8.03. The compound `Oc1c2ccccc2[nH+]c2ccccc12` displayed a pKa (acidic group) of 0.32. `CCCCCCCCCCCCCCCCN`: the pKa (basic group) is 10.6. Same read-out and setting: for `NC(=O)C[C@H](NC(=O)[C@@H](N)CS)C(=O)O` (H-Cys-Asn-OH) the value was 7.05; for `OCC1CC2CCN1CC2` (stereo unspecified), 10.8. In turn, `CCC1(c2ccccc2)C(=O)NC(=S)N(C)C1=O` (stereo unspecified) returned a pKa (acidic group) of 7.65.

`Cc1ccc(C)c(NN=C(C#N)C#N)c1` showed a pKa (acidic group) of 6.75 and a pKa (basic group) of -0.84.

With `O=C([O-])c1cc2ccccc2cc1O`, the pKa (acidic group) turned out to be 12.2. Turning to `Cc1n[nH]cc1Cl`, the pKa (basic group) was determined as 1.4.

Turning to `SCc1ccccc1`, the pKa (acidic group) came out at 9.43.

Under “acidic group”, `O=S1(=O)N=CNc2cccnc21` gave a pKa of 6.94. The compound `C[n+]1ccccc1O` came in with a pKa (acidic group) of 0.32.

As for `Fc1ccc(NC=S)cc1`, where the note is “acidic group”, the pKa was 11.2. For the setting “basic group”, `CN1CCC(NN)CC1` had a pKa of 8.85. For `CCSC(C)(O)O`, the pKa (acidic group) was found to be 12.1. As to `NCc1ccc(Cl)c(N)c1`, where the note is “basic group”, the pKa was 9.33. As for `C[Si](C)(C)c1cccc(C(=O)O)c1`, the pKa (acidic group) turned out to be 4.24. `[O-]/C(=C/c1ccncc1)c1ccccc1` registered a pKa (basic group) of 7.05. Same read-out and setting: for `C[NH+](C)CCN1C=Nc2cccc3cccc1c23` the value was 4.64; for `CCCSCCN(CC)CC`, 8.83.

Where the note is “acidic group”, `O=[N+]([O-])c1n[nH]c(-n2cncn2)n1` showed a pKa of 2. On the same count and under the same terms, for `O=C1CCC(=O)C1=O` the value was 8.48. Turning to `C#CC(C)(C)NC(C)(C)CC`, the pKa (basic group) was 9.

As for `O=C(O)C[Se]c1cccc([N+](=O)[O-])c1`, under “acidic group”, the pKa amounted to 3.55. The same measure, in the same setting: for `CC(C)(C)S` the value was 11.1. Regarding `CN1CCc2cccc(c2)CCc2ccc1cc2`, the pKa (basic group) was determined as 6.76.

Take `O/N=C/NO`: the pKa runs as follows: (acidic group) 10.7; (basic group) 4.05. In the case of `Nc1ccc2[nH]c(CCc3ccccc3)nc2c1`, the pKa (basic group) was 7.2.

`CCC1(C)CC(=O)NC1=O` (stereo unspecified) showed a pKa (acidic group) of 9.34. In turn, `Nc1ccnc(-c2ccccn2)c1` yielded a pKa (basic group) of 8.1. Same read-out and setting: next, `CCCCCCCN`: 10.3. Turning to `Cc1ccccc1C(=S)Nc1ccccc1`, the pKa (acidic group) stood at 10.9.

For the compound `Oc1c(Cl)cc(Cl)cc1C[NH+]1CCOCC1`, the pKa (acidic group) was 5.67. Turning to `Oc1cncc2ccccc12`, the pKa is 8.68 (acidic group) and 4.8 (basic group). In turn, `C=C[C@]1(O)C[NH+]2CC[C@H]1C[C@H]2[C@H](O)c1cc(O)[nH+]c2ccccc12` came in with a pKa (acidic group) of 2.76. Still for that read-out and setting: for `COc1ccc([C@H]2C[C@@H]2C(=O)O)cc1` the value was 4.62; for `OB(O)c1cccc(O)c1`, 8.55. Consider `CCO[C@H]1C[C@H]1C(=O)O`, for which the pKa (acidic group) came out at 4.83. Still for that read-out and setting: next, `OC(c1ccncc1)(c1ccncc1)c1cccnc1`: 11.9. `Nc1nc[nH]n1`: the pKa is, setting by setting: (acidic group) 10.7; (basic group) 4.3. For the compound `C[n+]1nc(-c2ccccc2)ccc1NCCN1CCOCC1`, the pKa (basic group) amounted to 5.31. The same measure, in the same setting: next, `Cc1ccccc1/C(=N/CCCN(C)C)c1ccc2ccccc2c1`: 8.9.

Regarding `Cc1cc(O)ccc1C(=O)O`, for the setting “acidic group”, the pKa came out at 4.71.

Regarding `Oc1ccc2nc3ccccc3cc2c1`, the pKa (acidic group) worked out at 8.81 and the pKa (basic group) is 5.52. Take `C[NH+](C)Cc1ccc(NC(=O)/C=N/O)cc1`: under “acidic group”, the pKa stood at 8.43. For the compound `C=C[C@]1(O)C[C@@H](C)N[C@@H]2CCCC[C@H]21`, under “basic group”, the pKa was 9.98. Still for that read-out and setting: next, `CCc1ccncc1`: 5.94. For `O=C(O)C(=O)C(c1ccccc1)c1ccccc1`, the pKa (acidic group) is 2.78.

The compound `CCc1cnnc(C)c1` had a pKa (basic group) of 4.17. With `O=C(O)c1ccc(CCl)cc1`, under “acidic group”, the pKa was 4.13.
